# Test results from patent publication US10017523B2, “NAMPT inhibitors and methods” (Genzyme Corporation, priority 2014, dated 2018).
# Key:
# Recombinant NAMPT enzyme = target: T1, Recombinant NAMPT enzyme (Homo sapiens, UniProt P43490); assay: Inhibition of NAMPT enzymatic activity; type: biochemical; conditions: 6 hours at 37° C., NMN product detected
# T1 construct: purchased MBL
# Experimental: Recombinant NAMPT enzyme (MBL) was briefly pre-incubated in the absence or presence of inhibitor followed by addition of nicotinamide. Enzymatic reaction was allowed to proceed for 6 hours at 37° C. Reaction was terminated and NMN reaction product detected using the method as described in: Zhang R Y, Qin Y, Lv X Q, Wang P, Xu T Y, Zhang L, Miao C Y., Anal. Biochem. 2011 May 1; 412(1):18-25.
# (§1) The 50% inhibitory concentration (IC50) is the concentration at which 50% of the maximal activity was inhibited.
# primary human B cells = assay: Anti-proliferative activity on B cells (anti-IgM stimulated, CellTiterGlo); type: cell-based; conditions: B-cell, 72 h, anti-IgM 10 ug/ml
# Experimental: (§2) Fresh primary human B cells obtained from Analytical Biological Services (Wilmington, Del.) were diluted to 1×10^^6 cells per ml in AIM-V medium (Invitrogen), and stimulated with anti-IgM (10 ug/ml) (KPL) in the absence or presence of inhibitor for 72 hours at 37° C./5% CO2 prior to viability determination using CellTiterGlo (Promega) per manufacturer's instruction.
# as §1
# primary human T cells = assay: Anti-proliferative activity on T cells (CD3/CD28 stimulated, CellTiterGlo); type: cell-based; conditions: T-cell, 72 h, CD3/CD28 beads
# Experimental: as §2, with “human T” for “human B”, “with CD3/CD28 beads (Invitrogen)” for “with anti-IgM (10 ug/ml) (KPL)”
# as §1
# [1] = tested on: acute T-cell leukemia (JURKAT); assay: Anti-proliferative activity on JURKAT cell line; type: cell-based; conditions: Homo sapiens, 72 h, CellTiterGlo
# Experimental: (§3) Leukemia/Lymphoma cell lines (ATCC) were diluted in vendor-recommended media and incubated in the absence or presence of inhibitor for 72 hours at 37° C./5% CO2 prior to viability determination using CellTiterGlo (Promega) per manufacturer's instruction. The human cell lines studied include acute T-cell leukemia (JURKAT), chronic myelogenous leukemia (K562), and B-cell acute lymphocytic leukemia (NALM6 and SUP-B15).
# [2] = tested on: chronic myelogenous leukemia (K562); assay: Anti-proliferative activity on K562 cell line; type: cell-based; conditions: Homo sapiens, K562, 72 h, CellTiterGlo
# Experimental: as §3
# [3] = tested on: B-cell acute lymphocytic leukemia (NALM6); assay: Anti-proliferative activity on NALM6 cell line; type: cell-based; conditions: Homo sapiens, NALM-6, 72 h, CellTiterGlo
# Experimental: as §3
# [4] = tested on: B-cell acute lymphocytic leukemia (SUP-B15); assay: Anti-proliferative activity on SUP-B15 cell line; type: cell-based; conditions: Homo sapiens, SUP-B15, 72 h, CellTiterGlo
# Experimental: as §3
# T1 sequence (P43490 whole entry): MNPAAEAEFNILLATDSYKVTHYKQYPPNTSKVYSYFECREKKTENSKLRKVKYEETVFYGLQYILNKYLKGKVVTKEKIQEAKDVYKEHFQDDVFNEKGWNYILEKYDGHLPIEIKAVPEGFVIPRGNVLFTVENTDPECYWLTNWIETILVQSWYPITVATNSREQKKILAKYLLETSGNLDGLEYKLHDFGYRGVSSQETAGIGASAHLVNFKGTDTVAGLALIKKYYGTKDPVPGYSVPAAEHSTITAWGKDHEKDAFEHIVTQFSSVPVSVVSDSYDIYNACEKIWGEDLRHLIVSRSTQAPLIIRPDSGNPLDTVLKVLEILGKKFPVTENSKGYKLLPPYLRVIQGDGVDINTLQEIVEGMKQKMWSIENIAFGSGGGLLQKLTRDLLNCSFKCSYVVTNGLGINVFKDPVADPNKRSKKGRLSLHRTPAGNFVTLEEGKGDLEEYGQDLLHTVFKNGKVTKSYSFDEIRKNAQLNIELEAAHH
SMILES,IC50 (Recombinant NAMPT enzyme) [nM],IC50 (primary human B cells) [nM],IC50 (primary human T cells) [nM],IC50 [1] [nM],IC50 [2] [nM],IC50 [3] [nM],IC50 [4] [nM]
"CC(C)N1CCC2(CC1)Oc1ccc(-c3ccc(C(=O)CCc4cncs4)cc3)cc1C(=O)N2C [1′-isopropyl-3-methyl-6-(4-(3-(thiazol-5-yl)propanoyl)phenyl)spiro[benzo[e][1,3]oxazine-2,4′-piperidin]-4(3H)-one]",166,40.8,3190,34.7,112,18.6,2.85
"Cc1ccc(CNC(=O)c2ccc(-c3ccc4c(c3)C(=O)CC3(CCN(C(C)C)CC3)O4)c(F)c2)cn1 [3-fluoro-4-(1′-isopropyl-4-oxospiro[chroman-2,4′-piperidin]-6-yl)-N-((6-methylpyridin-3-yl)methyl)benzamide]",2,53.9,8510,21.3,1730,10.7,2.22
"O=C(NCc1cncc(F)c1)c1ccc(-c2ccc3c(n2)C(=O)CC2(CCN(CC4CCC4)CC2)O3)cc1 [4-(1-(cyclobutylmethyl)-4′-oxo-3′,4′-dihydrospiro[piperidine-4,2′-pyrano[3,2-b]pyridin]-6′-yl)-N-((5-fluoropyridin-3-yl)methyl)benzamide]",66.4,83,3990,154,332,48.9,7.29
"Cc1ccc(CNC(=O)c2ccc(-c3ccc4c(c3)C(=O)N(C)C3(CCN(C(C)C)CC3)O4)cc2)cn1 [4-(1′-isopropyl-3-methyl-4-oxo-3,4-dihydrospiro[benzo[e][1,3]oxazine-2,4′-piperidin]-6-yl)-N-((6-methylpyridin-3-yl)methyl)benzamide]",2,15.3,4620,7.67,28.3,5.26,0.663
"Cc1cc(CNC(=O)c2ccc(-c3ccc4c(c3)C(=O)CC3(CCN(C(C)C)CC3)O4)cc2)no1 [4-(1′-isopropyl-4-oxospiro[chroman-2,4′-piperidin]-6-yl)-N-((5-methylisoxazol-3-yl)methyl)benzamide]",1,11.3,3240,10.7,63.6,2.69,1.17
"COCCCN1CCC2(CC1)CC(=O)c1cc(-c3ccc(C(=O)NCc4cncs4)cn3)ccc1O2 [6-(1′-(3-methoxypropyl)-4-oxospiro[chroman-2,4′-piperidin]-6-yl)-N-(thiazol-5-ylmethyl)nicotinamide]",141,43.8,3290,19.6,54.4,9.38,1.83
"COCCCN1CCC2(C=Cc3cc(-c4ccc(C(=O)NCc5cncs5)cn4)ccc3O2)CC1 [6-(1′-(3-methoxypropyl)spiro[chromene-2,4′-piperidin]-6-yl)-N-(thiazol-5-ylmethyl)nicotinamide]",56.4,45.5,5790,,85.8,13.9,1.7
"CCCCN1CCC2(CC1)CC(=O)c1cc(-c3ccc(C(=O)NCc4cncs4)cn3)ccc1O2 [6-(1′-butyl-4-oxospiro[chroman-2,4′-piperidin]-6-yl)-N-(thiazol-5-ylmethyl)nicotinamide]",29.9,24.8,1880,8.85,19.8,5.73,1.03
"CCN1CCC2(CC1)CC(=O)c1cc(-c3ccc(C(=O)NCc4cncs4)cn3)ccc1O2 [6-(1′-ethyl-4-oxospiro[chroman-2,4′-piperidin]-6-yl)-N-(thiazol-5-ylmethyl)nicotinamide]",271,50.9,3360,43.6,180,21.6,5.15
